Measurements taken from patent publication US9862674B2, “Therapeutic compounds and methods of use” (University of Florida Research Foundation, Inc., priority 2007, dated 2018).

What was measured:
5HT2A receptor [1] = target: T1, 5HT2A receptor (Homo sapiens, UniProt P28223); assay: PLC/[3H]-IP formation in CHO cells transiently transfected with human 5HT2A cDNA (agonist and antagonist mode); type: cell-based; design: host or cells: CHO-K1 (ATCC CCL-61), transient transfection
5HT2C receptors [2] = target: T2, 5HT2C receptors (Homo sapiens, UniProt P28335); assay: Radioreceptor saturation and competition binding, [3H]-mesulergine labeled 5-HT2C receptor membranes from transfected CHO-K1 cells
T2 sequence (P28335 33-458): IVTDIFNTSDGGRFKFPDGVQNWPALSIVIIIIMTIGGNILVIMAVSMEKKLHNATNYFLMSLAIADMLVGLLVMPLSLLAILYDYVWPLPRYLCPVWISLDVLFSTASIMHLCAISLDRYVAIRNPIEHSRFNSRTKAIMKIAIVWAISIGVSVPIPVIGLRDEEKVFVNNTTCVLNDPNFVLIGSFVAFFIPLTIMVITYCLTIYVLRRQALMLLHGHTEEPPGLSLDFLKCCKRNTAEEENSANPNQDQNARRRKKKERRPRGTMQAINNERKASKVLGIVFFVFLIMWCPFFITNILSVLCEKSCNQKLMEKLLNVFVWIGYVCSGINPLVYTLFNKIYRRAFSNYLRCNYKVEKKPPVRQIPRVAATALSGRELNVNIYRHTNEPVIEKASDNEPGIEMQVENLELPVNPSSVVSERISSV

5HT2A receptor [3] = target: T1, 5HT2A receptor; assay: PDSP (2005) 5HT2A receptor-mediated PLC/[3H]-IP formation; type: cell-based; conditions: concentrations to 10 μM; not shown
5HT2C receptors [4] = target: T2, 5HT2C receptors; assay: PDSP (2005) functional activity of APTs at 5HT2C receptors; type: cell-based; conditions: preliminary data
5HT2A receptor [5] = target: T1, 5HT2A receptor; assay: Radioreceptor saturation and competition binding, [3H]-ketanserin labeled 5-HT2A receptor membranes from transfected CHO-K1 cells; design: host or cells: CHO-K1 (ATCC CCL-61), transient transfection; conditions: saturation binding
[6] = tested on: 5HT2C receptors over 5HT2A receptors; conditions: in vitro; cited from earlier work
[7] = tested on: cocaine self-administration; conditions: rat; cited from earlier work

T1 sequence (P28223 whole entry): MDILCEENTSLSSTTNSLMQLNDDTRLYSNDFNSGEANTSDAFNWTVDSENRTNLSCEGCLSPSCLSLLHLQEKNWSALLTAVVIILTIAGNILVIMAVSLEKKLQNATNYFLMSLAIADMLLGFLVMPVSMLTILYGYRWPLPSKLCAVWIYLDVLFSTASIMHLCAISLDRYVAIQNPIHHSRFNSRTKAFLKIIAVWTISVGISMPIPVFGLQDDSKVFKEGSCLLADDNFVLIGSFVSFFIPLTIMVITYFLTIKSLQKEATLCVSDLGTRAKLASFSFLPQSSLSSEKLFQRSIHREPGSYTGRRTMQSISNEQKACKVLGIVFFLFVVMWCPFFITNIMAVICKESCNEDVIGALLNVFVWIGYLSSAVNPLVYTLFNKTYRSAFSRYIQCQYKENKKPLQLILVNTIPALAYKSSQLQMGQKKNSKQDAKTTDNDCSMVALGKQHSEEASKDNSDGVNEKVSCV

For `NCCc1c[nH]c2ccc(O)cc12` [5-HT, 5-hydroxytryptamine], the “5HT2A PLC/[3H]-IP formation stimulated by agonist” value (5HT2A receptor [1]; 5-HT 1.0 μM) was ~250 % basal control and the “maximal PLC/[3H]-IP formation, 5HT2A” value (5HT2A receptor [1]; at Emax concentration) was ~300 % basal control activity.
Compound `CN(C)C1CCc2cc(-c3cccc(C(F)(F)F)c3)ccc2C1` (stereo not shown) [37 (CF3^−6APT)] has a Ki (5HT2C receptors [2]) of ~1500 nM.
In the case of `CN(C)C1CCc2c(cccc2-c2ccccc2)C1` (stereo not shown) [32 (5APT)], the Ki (5HT2C receptors [2]) is reported as 320 ± 11 nM, the “activation of 5HT2A receptor-mediated PLC/[3H]-IP formation (PDSP)” value (5HT2A receptor [3]) is reported as “did not activate” and the EC50 (5HT2C receptors [4]) is reported as ~80 nM. The “Emax at 5HT2C (PDSP)” value (5HT2C receptors [4]) was ~75 % 5HT value and the “functional character at 5HT2C (PDSP)” value (5HT2C receptors [4]) was “moderate potency partial agonist”.
In the case of `[3H]C([3H])(N1CCC(C(=O)c2ccc(F)cc2)CC1)C([3H])([3H])n1c(=O)[nH]c2ccccc2c1=O` [[^3H]-Ketanserin], the “Bmax of 5HT2A receptors labeled” value (5HT2A receptor [5]) is reported as 1.73±0.11 pmol/mg protein.
In the case of `C[C@H]1CNCCc2ccc(Cl)cc21` [lorcaserin], the “selectivity for activation of 5HT2C receptors over 5HT2A receptors” value [6] is listed as 15 fold.
Work on `CN(C)C1CCc2cc(-c3cccc(Br)c3)ccc2C1` (stereo not shown) [40 (Br-6APT)] yielded a Ki (5HT2C receptors [2]) of 540 ± 10 nM.
Compound `CN(C)C1CCc2cc(-c3ccccc3)ccc2C1` (stereo not shown) [36 (6APT)] has a Ki (5HT2C receptors [2]) of 1800 nM.
`CN(C)C1CCc2c(cccc2-c2cccc(Cl)c2)C1` (stereo not shown) [35 (Cl-5APT)] gave a Ki (5HT2C receptors [2]) of ~220 nM.
In the case of `CN(C)C1CCc2c(cccc2-c2cccc(C(F)(F)F)c2)C1` (stereo not shown) [33 (CF3^−5APT)], the Ki (5HT2C receptors [2]) is reported as ~190 nM.
In the case of `COc1cccc([C@H](O)C2CCN(CCc3ccc(F)cc3)CC2)c1OC` [M100907], the “effect on rate of cocaine self-administration” value [7] is listed as “does not alter responding rate”.
For `Cc1cc2c(cc1Cl)N(C(=O)Nc1ccc(Oc3cccnc3C)nc1)CC2` [SB242084], the “effect on rate of cocaine self-administration” value [7] is listed as “increases the rate of cocaine self-administration dose-dependently”.
